US4783410A (priority 1985, dated 1988)
“Also recorded” adds a separate entry of the source.

Experiments:
[1] = target: CTL serine esterase (G4 extract) (Mus musculus, UniProt P11032); assay: biochemical; format: biochemical, murine
[2] = system: specific target cell lysis of P815 cells by CTL clone G4; format: cell-based, murine
[3] = system: specific target cell lysis of P815 cells by CTL clone G4; conditions: cited from earlier work

Chain of CTL serine esterase (G4 extract) (P11032 29-260): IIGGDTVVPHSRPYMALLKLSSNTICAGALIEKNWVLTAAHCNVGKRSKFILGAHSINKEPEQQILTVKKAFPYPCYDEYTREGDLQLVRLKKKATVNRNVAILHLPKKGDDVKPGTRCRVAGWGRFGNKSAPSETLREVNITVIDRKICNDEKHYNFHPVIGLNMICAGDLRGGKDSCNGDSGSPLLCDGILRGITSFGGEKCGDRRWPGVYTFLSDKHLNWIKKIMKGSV

SMILES | Inhibition of CTL esterase activity (in words) [1] | Inhibition of lysis of P815 cells by cloned anti-D^d G4 cells [2] | Toxicity to G4 cells by 51Cr release or reduced recovery of viable (trypan blue-negative) cells (G4 cells) | inhibition at 500 µM ([1]; read-out: Percent Inhibition of esterase activity) [%] | Block of CTL cytotoxicity [3]
O=S(=O)(F)Cc1ccccc1 [PMSF, phenylmethylsulfonyl fluoride] | blocked completely; also recorded: completely inhibitable | clearly inhibits lysis | no additive toxicity |  | 
Cc1ccc(S(=O)(=O)NC(CCCCN)C(=O)CCl)cc1 (stereo not drawn) [TLCK, N^alpha -tosyl lysyl chloromethyl ketone] | not, however, inhibited |  |  | 4.6 | known to block CTL cytotoxicity
